In ChEMBL document CHEMBL4665642, “Anticancer profile of newly synthesized BRAF inhibitors possess 5-(pyrimidin-4-yl)imidazo[2,1-b]thiazole scaffold” (Bioorg Med Chem, 2019):

Columns and labels:
[1] = system: SK-MEL-28; experiment: Cytotoxicity against human SK-MEL-28 cells assessed as reduction in cell viability by MTT assay; type: functional, cell-based
[2] = system: A-375; experiment: Cytotoxicity against human A-375 cells assessed as reduction in cell viability by MTT assay; type: functional, cell-based
[3] = system: L132; experiment: Cytotoxicity against human L132 cells assessed as reduction in cell viability by MTT assay; type: cell-based
[4] = biological target: RAF proto-oncogene serine/threonine-protein kinase (Homo sapiens, UniProt P04049); experiment: Inhibition of human CRAF using MEK1 as substrate by [gamma-33P]-ATP assay
[5] = biological target: Serine/threonine-protein kinase B-raf (Homo sapiens, UniProt P15056, V600E); experiment: Inhibition of human BRAF V600E mutant using MEK1 as substrate by […] assay
[6] = biological target: Serine/threonine-protein kinase B-raf (Homo sapiens, UniProt P15056); experiment: Inhibition of human BRAF using MEK1 as substrate by […] assay
Serine/threonine-protein kinase B-raf (Homo sapiens, UniProt P15056), sequence (P15056 whole entry): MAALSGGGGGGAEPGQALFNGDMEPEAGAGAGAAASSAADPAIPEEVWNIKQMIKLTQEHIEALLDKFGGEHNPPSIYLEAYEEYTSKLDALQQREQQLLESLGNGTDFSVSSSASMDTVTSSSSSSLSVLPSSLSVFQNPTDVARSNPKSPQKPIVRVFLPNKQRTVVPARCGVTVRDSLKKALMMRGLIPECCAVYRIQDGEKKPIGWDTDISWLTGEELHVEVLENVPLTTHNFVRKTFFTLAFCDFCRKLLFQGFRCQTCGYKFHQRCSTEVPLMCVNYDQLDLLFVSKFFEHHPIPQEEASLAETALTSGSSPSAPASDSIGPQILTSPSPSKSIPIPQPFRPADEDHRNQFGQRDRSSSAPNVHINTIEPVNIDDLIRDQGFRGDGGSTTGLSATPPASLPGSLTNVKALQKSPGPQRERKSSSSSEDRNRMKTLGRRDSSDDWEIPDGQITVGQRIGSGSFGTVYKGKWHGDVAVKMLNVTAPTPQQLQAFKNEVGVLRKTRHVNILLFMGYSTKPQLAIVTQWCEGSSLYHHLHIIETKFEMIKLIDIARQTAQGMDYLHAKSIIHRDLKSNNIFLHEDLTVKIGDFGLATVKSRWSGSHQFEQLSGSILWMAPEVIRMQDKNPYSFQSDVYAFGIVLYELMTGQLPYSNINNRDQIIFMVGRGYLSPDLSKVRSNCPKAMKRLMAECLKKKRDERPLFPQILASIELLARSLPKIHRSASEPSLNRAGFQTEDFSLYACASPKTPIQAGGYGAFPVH

RAF proto-oncogene serine/threonine-protein kinase, sequence (P04049 whole entry): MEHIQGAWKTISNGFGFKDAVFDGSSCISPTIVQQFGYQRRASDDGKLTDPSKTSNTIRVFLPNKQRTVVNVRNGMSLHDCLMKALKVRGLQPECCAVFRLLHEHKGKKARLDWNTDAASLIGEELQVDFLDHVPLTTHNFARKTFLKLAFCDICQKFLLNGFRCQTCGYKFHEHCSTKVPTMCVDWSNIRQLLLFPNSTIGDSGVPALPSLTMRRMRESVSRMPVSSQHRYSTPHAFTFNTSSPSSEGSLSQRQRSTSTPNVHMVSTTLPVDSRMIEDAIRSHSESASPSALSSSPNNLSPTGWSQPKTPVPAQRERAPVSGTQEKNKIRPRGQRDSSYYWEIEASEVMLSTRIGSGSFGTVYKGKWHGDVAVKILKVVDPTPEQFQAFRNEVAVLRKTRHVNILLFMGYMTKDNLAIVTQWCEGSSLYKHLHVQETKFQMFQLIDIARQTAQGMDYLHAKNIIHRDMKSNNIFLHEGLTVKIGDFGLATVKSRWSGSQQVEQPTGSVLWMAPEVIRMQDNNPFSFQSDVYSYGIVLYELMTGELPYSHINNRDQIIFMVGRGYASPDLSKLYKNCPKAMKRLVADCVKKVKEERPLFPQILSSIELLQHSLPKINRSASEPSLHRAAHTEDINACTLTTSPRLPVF
Serine/threonine-protein kinase B-raf (Homo sapiens, UniProt P15056, V600E), sequence (P15056 2-766 V600E limits assumed): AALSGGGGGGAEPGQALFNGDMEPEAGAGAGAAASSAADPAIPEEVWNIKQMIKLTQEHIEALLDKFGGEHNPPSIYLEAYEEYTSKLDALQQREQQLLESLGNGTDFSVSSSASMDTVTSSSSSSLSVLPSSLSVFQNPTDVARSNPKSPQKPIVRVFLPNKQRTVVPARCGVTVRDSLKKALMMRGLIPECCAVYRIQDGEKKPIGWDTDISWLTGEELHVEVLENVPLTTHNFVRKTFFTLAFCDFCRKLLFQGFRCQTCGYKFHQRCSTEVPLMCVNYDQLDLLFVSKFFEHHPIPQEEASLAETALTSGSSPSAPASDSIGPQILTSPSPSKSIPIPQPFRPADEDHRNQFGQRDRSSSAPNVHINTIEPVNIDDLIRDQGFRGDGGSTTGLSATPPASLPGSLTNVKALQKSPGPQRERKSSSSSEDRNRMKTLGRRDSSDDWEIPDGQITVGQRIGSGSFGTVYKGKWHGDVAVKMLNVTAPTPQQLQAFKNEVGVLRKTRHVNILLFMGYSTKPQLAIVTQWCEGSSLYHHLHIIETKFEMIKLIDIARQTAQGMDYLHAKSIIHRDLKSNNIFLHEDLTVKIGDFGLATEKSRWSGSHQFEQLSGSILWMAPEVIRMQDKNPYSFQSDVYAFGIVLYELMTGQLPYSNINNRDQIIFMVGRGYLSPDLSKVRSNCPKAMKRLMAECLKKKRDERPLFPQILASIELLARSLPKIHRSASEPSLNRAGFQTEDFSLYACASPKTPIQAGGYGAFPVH

| SMILES | IC50 [1] [µM] | IC50 [2] [µM] | IC50 [3] [µM] | IC50 [4] [µM] | IC50 [5] [µM] | IC50 [6] [µM] |
| --- | --- | --- | --- | --- | --- | --- |
| CNC(=O)c1cc(Oc2ccc(NC(=O)Nc3ccc(Cl)c(C(F)(F)F)c3)cc2)ccn1 [SORAFENIB] | 9.45 | 7.88 | – | – | – | – |
| Cc1ccc(C(=O)NCCNc2nccc(-c3c(-c4cccc(F)c4)nc4sccn34)n2)cc1 | 18.8 | 5.88 | 245 | – | – | – |
| O=C(NCCCNc1nccc(-c2c(-c3cccc(F)c3)nc3sccn23)n1)c1ccc(Cl)cc1 | > 20 | 13.7 | – | – | – | – |
| Cc1ccc(S(=O)(=O)NCCNc2nccc(-c3c(-c4cccc(F)c4)nc4sccn34)n2)cc1 | > 20 | 15.4 | – | – | – | – |
| COc1ccc(S(=O)(=O)NCCCNc2nccc(-c3c(-c4cccc(F)c4)nc4sccn34)n2)cc1 | 8.98 | 5.51 | – | 0.0261 | 0.0251 | 0.0551 |
